Consider 10 molecules from PubChem BioAssay (NCI).

Common to all, as to assay: NCI anticancer screen, dose series, 48 h
Assay [1] relates to NCI-H23 lung.
The subject of assay [2] is NCI/ADR-RES ovarian.
Assay [3] deals with COLO 205 colon.
Assay [4] concerns SK-MEL-5 melanoma.
Assay [5] relates to A549 NSCLC.
In assay [6] the test system is RXF 393 renal.
The subject of assay [7] is U251 CNS.
For assay [8], the system named is K-562 leukemia.
Assay [9] deals with HOP-92 NSCLC.
Assay [10] concerns SNB-75 CNS.
Assay [11] concerns TK-10 renal.

Each structure is given as a SMILES string.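 Step 1: Grow cells in 96-well plates. Step 2: Expose to compound for 48 hours at 5 concentrations. Step 3: Interpolate endpoints linearly; if unreached, use highest concentration. TGI is the concentration that stops growth completely.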

Consider `COC(=O)[C@]1(c2ccc(N(C)C)cc2OC)C[C@@H]2CCCN(CCc3c1[nH]c1ccccc31)C2`, for which the TGI in assay [1] is over 51.1 µM; in [2], 35.8 µM; in [3], 27.3 µM; in [4], 31.4 µM; in assay [5], over 65.5 µM; in assay [6], 37.9 µM. For the same molecule, the TGI in assay [7] amounted to 36 µM; in assay [8] it was 37.7 µM; in assay [9] it was 33.4 µM; in assay [10] it was 22.3 µM.
With `CNC(=O)SCC(NC(=O)CCC(N)C(=O)O)C(=O)NCC(=O)O` (stereo not given), the TGI in [1], in assay [2], in [3], in [4], in assay [5] and in [6] was over 100 µM each time. The TGI in [7], in assay [8], in assay [9] and in assay [10] was over 100 µM in each case.
For `COc1cc(C2C3=C(CCCC3=O)N(c3ccc(C)cc3)C3=C2C(=O)CCC3)c([N+](=O)[O-])cc1OC`, the TGI in assay [1], in [2], in [4], in assay [11], in assay [5] and in assay [6] was over 100 µM each time. The TGI in [7], in assay [8], in [9] and in [10] was over 100 µM throughout.
As for `O=[N+]([O-])/C=C(\CS(=O)(=O)c1ccccc1)c1ccc2c(c1)OCO2`, the TGI in [1] was 36.3 µM; in assay [2], 49.2 µM; in [3], over 100 µM; in assay [4], over 100 µM; in assay [5], over 100 µM; in assay [6] it was over 100 µM. The TGI in assay [7], in [8], in [9] and in [10] was over 100 µM in each case.
Consider `Cc1nc2c(cc1OCc1ccccc1)C(=O)C1=C(C2=O)C2OC(=O)CC2OC1(C)C` (stereo not given), for which the TGI in [1] came to 2.32 µM; in assay [2], 28.9 µM; in assay [3], 1.15 µM; in assay [4], 2.61 µM; in assay [11] it was 2.75 µM; in assay [5] it was 21.2 µM. The TGI in [6] is 1.64 µM; in assay [7] it was 2.14 µM; in assay [9], 1.42 µM; in [10], 3.94 µM.
In the case of `C=C(C)[C@H]1C2=CC(C)=C(O2)[C@@H](O)[C@H](C(=C)C)CCC2=C[C@H]1OC2=O`, the TGI in [2], in assay [3], in assay [4], in assay [11], in assay [5] and in [6] was over 100 µM throughout. The TGI in assay [7], in [8], in assay [9] and in [10] was over 100 µM each time.
As for `C=CC(=O)N1C/C(=C\c2ccc([N+](=O)[O-])cc2)C(=O)/C(=C/c2ccc([N+](=O)[O-])cc2)C1`, the TGI was found to be 0.791 µM in assay [1]; 4.12 µM in [2]; 0.273 µM in [3]; 2.54 µM in assay [4]; 2.09 µM in assay [11]; 1.72 µM in [5]. For the same molecule, the TGI in assay [6] was determined as 0.359 µM; in [7] it was 0.978 µM; in assay [9], 2.98 µM; in assay [10], 1.16 µM.
In the case of `COc1cc2c(cc1Oc1c(Oc3c(O)c(OC)cc4c3C(CC(C)C)N(C)CC4)c(OC)cc3c1C(CC(C)C)N(C)CC3)C(CC(C)C)N(C)CC2` (stereo not given), the TGI in assay [1] was 4.91 µM; in assay [2] it was 14.1 µM; in assay [3], 0.837 µM; in assay [4], 0.832 µM; in assay [5], 6.39 µM; in [6] it was 3.28 µM. In addition, the TGI is 6.22 µM in [7], 5.65 µM in [8], 7.87 µM in assay [9] and 3.01 µM in [10].
Turning to `O=C(O)/C(=C\c1ccc(O)cc1)c1cccc2ccccc12`, the TGI in assay [1], in assay [2], in assay [4], in assay [11], in assay [5] and in [6] was over 100 µM each time. The TGI in assay [7], in assay [8], in assay [9] and in assay [10] was over 100 µM throughout.
For the molecule `COC1=CC(=O)C=C(OC)C1=O`, the TGI came out at 22.7 µM in [1]; 10.1 µM in [2]; 40.3 µM in assay [3]; 37.5 µM in assay [4]; 95.7 µM in assay [5]; 20.7 µM in assay [6]. In addition, the TGI in [7] amounted to 64.5 µM; in assay [8], 18 µM; in assay [9] it was 7.89 µM; in [10], 55.9 µM.
